{"source": "patent US20150132342A1", "about": "“NOVEL IMMUNE ACTIVATORS: SUBSTITUTE 4-AMINOQUINAZOLINES” (The Regents of the University of California, priority 2013, published 2015)", "key": {"mBMDC": {"tested_on": "mBMDC", "assay": "Co-stimulatory molecule expression in CD11c+ mBMDC (flow cytometry)", "format": "cell-based, mouse", "settings": "CD11c+ population", "procedure": "FIG. 2. Compound 1a induces type I IFN and expression of co-stimulatory molecules. A) Human PBMC were incubated with compound 1a (10 μM), LPS (10 ng/mL), or vehicle overnight. The release of type I IFN in the culture supernatants was measured by luciferase release in L929-ISRE reporter cells. Data shown are mean±SEM of triplicates. B) Compound 1a- or vehicle-treated wild type or Tlr4^−/−mBMDC were stained for CD11c and either CD40, CD80, or CD86. The expression levels of CD40, CD80, or CD86 were evaluated in the gated CD11c^+ population. DMSO 0.5% served as the vehicle control. C) Human PBMC were incubated with compound 1a (5 μM) overnight. CD80 and CD83 expression in gated CD11c^+ HLA-DR^+ population was analyzed by flow cytometer. Data are representative of two independent experiments showing similar results.\nTo evaluate whether treatment of DCs with this compound can induce maturation in these cells, mBMDC prepared from wild type or TLR4 deficient mice were exposed to compound 1a and then assayed for expression of co-stimulatory molecules CD40, CD80, and CD86 in the CD11c+ population (FIG. 2B). […] Induction of co-stimulatory molecules by compound 1a was also confirmed in human PBMC."}, "human PBMC [1]": {"tested_on": "human PBMC", "assay": "Type I IFN release by hPBMC measured in L929-ISRE luciferase reporter cells", "format": "cell-based", "settings": "10 μM, overnight; LPS 10 ng/mL comparator", "procedure": "Type I interferon (IFN) assay. L929 cells stably expressing an IFN sensitive response element (ISRE) luciferase reporter construct were kindly provided by Dr. B. Beutler (UT Southwestern, Dallas, Tex.)^7. The bioactivity oftype I IFN in hPBMC supernatants was measured by luciferase assay using L929-ISRE cells as described previously.^7 L929-ISRE cells were plated at 5×10^4 cells per well inDulbecco's Modified Eagle Medium (Life Technologies) supplemented with 10% FCS, 100 U/mL penicillin and 100 μg/mL streptomycinin a 96-well white-walled clear-bottom plate and incubated overnight. Thus, 50 μL of supernatant was incubated with L929-ISRE cells in 50 μL of DMEM for 6 h. The luciferase activities were measured by GloBrightLuciferase Assay Buffer (Promega, Madison, Wis.)."}, "THP-1 cells": {"tested_on": "THP-1 cells", "assay": "CellSensor NF-κB-bla THP-1 FRET β-lactamase reporter assay", "format": "cell-based, human", "settings": "graded concentrations, normalized to LPS", "procedure": "The assay with CellSensor® NF-κB-bla THP-1 cells was performed almost identically to that with CellSensor® NF-κB-bla RAW 264.7 cells, except that cells were harvested, resuspended, and plated in RPMI (plus 10% dialyzed FBS, 0.1 mM non-essential amino acids, 1 mM sodium pyruvate, 100 U/ml penicillin and 100 μg/ml streptomycin) and incubated with drugs for only 5 h prior to addition of the 6× substrate mixture. Plates were then incubated for 2 h prior to measurement of fluorescence."}, "mouse BMDC": {"tested_on": "mouse BMDC", "assay": "MTT viability of mouse BMDC", "format": "cell-based", "settings": "10 μM, 18 h incubation"}, "human PBMC [2]": {"tested_on": "human PBMC", "assay": "MTT viability of human PBMC", "format": "cell-based", "settings": "10 μM, 18 h incubation"}, "human TLR4/MD-2": {"target": "T1, human TLR4/MD-2 (Homo sapiens, UniProt O00206+Q9Y6Y9)", "T1 construct": "expressed in transfected cells; host or cells: bone marrow derived macrophages of human TLR4 transgenic mice on a murine TLR4/MD-2 null C57BL/6 background (gift of Dr. L. Hajjar)", "T1 sequence (O00206 24-839)": "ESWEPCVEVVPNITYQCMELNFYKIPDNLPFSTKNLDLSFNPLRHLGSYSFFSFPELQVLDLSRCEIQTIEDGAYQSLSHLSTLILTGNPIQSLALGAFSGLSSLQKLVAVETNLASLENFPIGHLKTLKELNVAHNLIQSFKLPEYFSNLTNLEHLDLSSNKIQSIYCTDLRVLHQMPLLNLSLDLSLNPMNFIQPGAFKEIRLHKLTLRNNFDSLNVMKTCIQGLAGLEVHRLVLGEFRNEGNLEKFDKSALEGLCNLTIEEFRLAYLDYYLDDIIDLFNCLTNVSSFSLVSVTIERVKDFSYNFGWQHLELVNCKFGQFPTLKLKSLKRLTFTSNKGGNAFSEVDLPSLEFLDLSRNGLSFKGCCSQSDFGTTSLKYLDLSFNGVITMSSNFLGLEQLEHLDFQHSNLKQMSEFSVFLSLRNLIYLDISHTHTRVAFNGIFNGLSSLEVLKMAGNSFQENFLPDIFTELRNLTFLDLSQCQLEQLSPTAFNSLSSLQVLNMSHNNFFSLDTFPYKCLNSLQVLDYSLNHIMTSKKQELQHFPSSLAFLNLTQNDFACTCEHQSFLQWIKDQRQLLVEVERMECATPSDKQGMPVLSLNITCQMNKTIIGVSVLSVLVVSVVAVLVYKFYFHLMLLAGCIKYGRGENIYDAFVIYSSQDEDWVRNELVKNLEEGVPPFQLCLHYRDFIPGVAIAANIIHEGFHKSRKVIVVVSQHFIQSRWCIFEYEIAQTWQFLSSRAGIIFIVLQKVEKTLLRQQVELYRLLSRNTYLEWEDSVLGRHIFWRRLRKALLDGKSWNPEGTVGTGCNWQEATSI", "T1 sequence (Q9Y6Y9 19-160)": "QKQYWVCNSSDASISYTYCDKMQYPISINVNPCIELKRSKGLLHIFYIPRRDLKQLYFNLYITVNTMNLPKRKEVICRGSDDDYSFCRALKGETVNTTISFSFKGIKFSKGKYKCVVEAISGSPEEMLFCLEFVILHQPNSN", "assay": "BMDM from transgenic mice expressing human TLR4/MD-2 (IL-6, IP-10)", "format": "cell-based", "settings": "BMDM from human TLR4/MD-2 transgenic mice deficient for murine TLR4/MD-2", "text": "Animals. Seven to 9 week-old C57BL/6 (wild type, WT) and Cd14^−/− (C57BL/6 background) mice were purchased from the Jackson Laboratories (Bar Harbor, Mass.). Tlr4^−/− mice (C57BL/6 background) were a gift from Dr. Shizuo Akira (Osaka University, Japan) and were backcrossed for 10 generations onto the C57BL/6 background at University of California, San Diego (UCSD). MD-2^−/− mice (C57BL/6 background) were originally generated by Dr. K. Miyake (University of Tokyo, Tokyo, Japan) and were kindly provided by Dr. L. Hajjar (University of Washington, Seattle, Wash.). Human TLR4 transgenic mice on murine TLR4/MD-2 null C57BL/6 background were kindly provided by Dr. L. Hajjar.^3 All animal experiments were approved by the UCSD Institutional Animal Care and Use Committee.\nIn vitro cytokine induction in bone marrow derived dendritic cells (BMDC) and macrophages (BMDM). […] The levels of IL-6 or IP-10 in the culture supernatants were determined by ELISA (BD Biosciences, La Jolla, Calif.).^5 Finally, all levels of cytokine release were normalized to those of LPSstimulation within each experiment, set at 100."}, "HepG2 cells": {"tested_on": "HepG2 cells", "assay": "MTT assay in HepG2 cells", "format": "cell-based", "settings": "compounds tested at 10 μM; normalized with OD570-650 of vehicle treatment; in % (unit assumed)"}}, "data": [{"compound": "CCOC(=O)c1nc(Nc2cc(Oc3ccccc3)cc([N+](=O)[O-])c2)c2ccccc2n1", "note": "[Compound 1a, Ethyl 4-((3-nitro-5-phenoxyphenyl)amino)quinazoline-2-carboxylate]", "values": [{"measurement": "Expression of co-stimulatory molecules CD40, CD80, CD86", "setting": "mBMDC; TLR4 deficient mBMDC", "value": "not in the TLR4 deficient cells"}, {"measurement": "Expression of co-stimulatory molecules CD40, CD80, CD86", "setting": "mBMDC; wild type mBMDC", "value": "increased"}, {"measurement": "Release of type I IFN", "setting": "human PBMC [1]", "value": "comparable to that of LPS"}, {"measurement": "NF-κB activation potency, human THP-1 versus mouse RAW264.7", "setting": "THP-1 cells", "value": "significantly more potent"}, {"measurement": "Viability by MTT assay", "setting": "mouse BMDC", "value": "117±2.6", "unit": "%"}, {"measurement": "Viability by MTT assay", "setting": "human PBMC [2]", "value": "112±2.1", "unit": "%"}, {"measurement": "Activation of transgenic human TLR4/MD-2 complex relative to mouse TLR4/MD-2", "setting": "human TLR4/MD-2", "value": "to a greater extent"}, {"measurement": "HepG2 MT", "setting": "HepG2 cells", "value": 93.5}]}]}
